# Source: patent publication US10407381B2 (THE BOARD OF TRUSTEES OF THE UNIVERSITY OF ILLINOIS, priority 2015, dated 2019)
# Like-named read-outs stand apart in the source and are kept apart here.
# Tests used:
# rat 5-HT2C-INI = biological target: T1, rat 5-HT2C-INI (Rattus norvegicus, UniProt P08909); assay: Calcium flux (FLIPR) assay, rat 5-HT2C-INI receptors expressed on PO1C cells; format: cell-based; conditions: data acquired with rat 5-HT2C-INI receptors expressed on PO1C cells
# T1 construct: expressed in transfected cells; host or cells: rat PO1C cell line
# T1 sequence (P08909 33-460): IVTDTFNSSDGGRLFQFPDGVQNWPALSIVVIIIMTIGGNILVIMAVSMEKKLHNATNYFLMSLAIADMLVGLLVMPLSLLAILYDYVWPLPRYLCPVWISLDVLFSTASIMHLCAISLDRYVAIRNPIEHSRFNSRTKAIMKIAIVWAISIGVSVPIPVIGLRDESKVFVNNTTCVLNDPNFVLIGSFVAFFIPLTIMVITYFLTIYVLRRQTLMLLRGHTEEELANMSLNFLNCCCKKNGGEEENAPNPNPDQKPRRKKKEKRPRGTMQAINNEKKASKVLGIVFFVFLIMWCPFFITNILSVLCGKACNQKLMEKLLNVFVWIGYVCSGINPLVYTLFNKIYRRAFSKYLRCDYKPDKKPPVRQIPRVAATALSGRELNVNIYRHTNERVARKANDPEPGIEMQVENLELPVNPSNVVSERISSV
# Procedure: Rat 5-HT2C-INI Receptors Expressed on PO1C Cells
# Rat PO1C cell line stably expressing the rat 5-HT2C-INI was plated onto Poly-L-Lys-coated 384-well black clear bottom cell culture plates in DMEM 1% dialyzed FBS (12 000 cells/well). Preceding the experiment, culture medium was removed and 20 μl of assay buffer (20 mM Hepes, pH 7.40, Hanks' balanced salt solution, 2.5 mM probenecid, 1×FLIPR calcium dye) was added and cells incubated at 37° C. for 1 h. Serial dilution of each tested drugs were prepared at 3× final concentration and transfer to a 384-well plates. Cell and drug plates were placed in a FLIPR^TETRA fluorescence imaging plate reader ([…]) and programmed to read baseline for 10 sec (1 read/s) and then add 10 μl of drug/well and to read additional 120 sec. […] Data were plotted and normalized compared to 5-HT and regressed using sigmoidal dose-response function. Data of two independent experiments (n=2) conducted in quadruplicate are presented. Analyses were performed using the software GraphPad Prism 6.0.
# 5-HT2B = 5-HT2B (Homo sapiens, UniProt P41595); assay: Calcium flux (FLIPR) assay, human 5-HT2B stably expressed in HEK-293 (Flp-In-293) cells; conditions: for Emax, % 5-HT 5-HT2B: normalized to 5-HT
# Chain of 5-HT2B (P41595 whole entry): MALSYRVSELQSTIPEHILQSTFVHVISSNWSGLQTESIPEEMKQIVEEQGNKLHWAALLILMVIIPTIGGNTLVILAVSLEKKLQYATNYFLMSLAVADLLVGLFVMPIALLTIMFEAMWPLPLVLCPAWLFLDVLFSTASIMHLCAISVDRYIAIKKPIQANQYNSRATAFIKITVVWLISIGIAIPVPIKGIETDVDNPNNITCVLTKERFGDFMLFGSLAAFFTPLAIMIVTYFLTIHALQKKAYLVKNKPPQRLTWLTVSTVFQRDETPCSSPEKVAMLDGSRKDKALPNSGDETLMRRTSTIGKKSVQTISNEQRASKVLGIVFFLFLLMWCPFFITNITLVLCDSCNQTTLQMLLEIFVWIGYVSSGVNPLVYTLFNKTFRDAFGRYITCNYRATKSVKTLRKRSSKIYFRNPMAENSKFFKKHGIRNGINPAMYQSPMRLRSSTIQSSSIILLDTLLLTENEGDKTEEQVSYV
# 5-HT2A = 5-HT2A (Homo sapiens, UniProt P28223); assay: Calcium flux (FLIPR) assay, human 5-HT2A stably expressed in HEK-293 (Flp-In-293) cells; conditions: for Emax, % 5-HT 5-HT2A: normalized to 5-HT
# Chain of 5-HT2A (P28223 whole entry): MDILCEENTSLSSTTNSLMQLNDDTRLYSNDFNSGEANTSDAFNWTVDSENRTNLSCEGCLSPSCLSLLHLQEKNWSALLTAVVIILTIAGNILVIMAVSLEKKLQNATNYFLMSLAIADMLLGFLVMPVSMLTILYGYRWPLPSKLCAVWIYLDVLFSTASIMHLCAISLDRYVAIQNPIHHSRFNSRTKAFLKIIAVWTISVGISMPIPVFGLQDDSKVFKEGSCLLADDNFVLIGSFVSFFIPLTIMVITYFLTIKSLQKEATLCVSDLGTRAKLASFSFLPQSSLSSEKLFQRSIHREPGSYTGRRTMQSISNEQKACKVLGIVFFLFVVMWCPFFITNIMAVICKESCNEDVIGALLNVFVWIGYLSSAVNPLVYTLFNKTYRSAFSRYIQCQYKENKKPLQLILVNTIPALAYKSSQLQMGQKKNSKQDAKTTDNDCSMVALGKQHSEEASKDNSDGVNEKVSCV
# human 5-HT2C-INI = biological target: T2, human 5-HT2C-INI (Homo sapiens, UniProt P28335); assay: Calcium flux (FLIPR) assay, human 5-HT2C-INI stably expressed in HEK-293 (Flp-In-293) cells; conditions: human 5-HT2C-INI in HEK-293 cells, FLIPR; for EC50: NA = no activity at 10 μM; for Emax, % 5-HT 5-HT2C: normalized to 5-HT
# T2 sequence (P28335 33-458): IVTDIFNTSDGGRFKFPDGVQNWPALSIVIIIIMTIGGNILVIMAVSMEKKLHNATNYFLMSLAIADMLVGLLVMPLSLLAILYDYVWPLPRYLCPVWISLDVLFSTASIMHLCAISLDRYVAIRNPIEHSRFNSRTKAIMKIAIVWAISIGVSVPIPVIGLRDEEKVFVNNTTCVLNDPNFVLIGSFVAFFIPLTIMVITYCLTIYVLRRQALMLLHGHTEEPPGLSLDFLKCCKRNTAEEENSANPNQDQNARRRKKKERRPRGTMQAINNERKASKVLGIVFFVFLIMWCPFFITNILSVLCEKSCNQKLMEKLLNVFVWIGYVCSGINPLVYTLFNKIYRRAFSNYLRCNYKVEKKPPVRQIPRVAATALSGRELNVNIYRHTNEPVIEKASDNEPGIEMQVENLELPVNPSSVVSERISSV
# [1] = EC50, nM 5-HT2B, human 5-HT2B in HEK-293 cells, NA = no activity at 10 μM
# [2] = EC50, nM 5-HT2A, human 5-HT2A in HEK-293 cells, FLIPR, NA = no activity at 10 μM
# [3] = human 5-HT2A in HEK-293 cells, FLIPR
# [4] = read-out: EC50, nM 5-HT2B, human 5-HT2B in HEK-293 cells, NA = no activity at 10 μM
# [5] = read-out: EC50, nM 5-HT2A, human 5-HT2A in HEK-293 cells, FLIPR, NA = no activity at 10 μM
"Emax, % 5-HT 5-HT2C (footnote a) (rat 5-HT2C-INI)","EC50 (rat 5-HT2C-INI; NA = no activity at 10 μM, read-out: EC50, nM 5-HT2C (footnote a)) [nM]",Compound,EC50 (5-HT2B; [1]) [nM],"Emax, % 5-HT 5-HT2B (5-HT2B; human 5-HT2B in HEK-293 cells)",EC50 (5-HT2A; [2]) [nM],"Emax, % 5-HT 5-HT2A (5-HT2A; [3])","EC50 (human 5-HT2C-INI; EC50, nM 5-HT2C) [nM]","Emax, % 5-HT 5-HT2C (human 5-HT2C-INI)",EC50 (5-HT2B; [4]) [nM],EC50 (5-HT2A; [5]) [nM],"EC50 (human 5-HT2C-INI; read-out: EC50, nM 5-HT2C) [nM]",EC50 (5-HT2A) [nM],"EC50 (5-HT2A; EC50, nM 5-HT2A) [nM]"
(86%) ^a % 5-HT,588,"CC(C)Oc1cc(F)c(Cl)cc1C1CC1CN (single isomer, unassigned; (-)) [(−)-Example 3, (−)-(2-(5-Chloro-4-fluoro-2-isopropoxyphenyl)cyclopropyl)methanamine]",–,–,–,–,–,–,–,–,–,–,–
–,–,"COc1ccc(Cl)c(F)c1[C@@H]1C[C@H]1CN (single isomer, unassigned) [(+)-Example 29, (+)-(2-(3-chloro-2-fluoro-6-methoxyphenyl)cyclopropyl)methanamine]",354,(52%) % 5-HT,212,(85%) % 5-HT,13,(92%) % 5-HT,–,–,–,–,–
–,–,"COc1cc(Cl)c(Cl)cc1C1CC1CN (single isomer, unassigned; (-)) [(−)-Example 33, (−)-(2-(4,5-Dichloro-2-methoxyphenyl)cyclopropyl)methanamine]",–,(16%) % 5-HT,–,(75%) % 5-HT,–,(89%) % 5-HT,696,84,14,–,–
–,–,"COc1cc(F)c(F)cc1[C@@H]1C[C@H]1CN (single isomer, unassigned) [(−)-Example 40, (−)-(2-(4,5-Difluoro-2-methoxyphenyl)cyclopropyl)methanamine]",–,(59%) % 5-HT,511,(76%) % 5-HT,–,(104%) % 5-HT,–,–,–,–,–
–,–,"CCOc1ccc(Cl)c(Cl)c1C1CC1CN (single isomer, unassigned; (+)) [(+)-Example 37, (+)-(2-(2,3-Dichloro-6-ethoxyphenyl)cyclopropyl)methanamine]",1310,(61%) % 5-HT,976,(32%) % 5-HT,91,(101%) % 5-HT,–,–,–,–,–
–,–,"C=CCOc1ccc(Cl)c(Cl)c1C1CC1CN (single isomer, unassigned; (-)) [(−)-Example 39]",–,(99%) % 5-HT,–,(32%) % 5-HT,–,(93%) % 5-HT,3960,426,108,–,–
–,–,"COc1ccc(Cl)c(Cl)c1C1CC1CN (single isomer, unassigned; (+)) [(+)-Example 36, (+)-(2-(2,3-Dichloro-6-methoxyphenyl)cyclopropyl)methanamine]",–,(46%) % 5-HT,–,(76%) % 5-HT,–,(98%) % 5-HT,534,203,21,–,–
–,–,"NCC1CC1c1c(OCCF)ccc(Cl)c1Cl (single isomer, unassigned; (+)) [(+)-Example 38, (+)-(2-(2,3-Dichloro-6-(2-fluoroethoxy)phenyl)cyclopropyl)methanamine]",5520,(99%) % 5-HT,–,(22%) % 5-HT,232,(90%) % 5-HT,–,–,–,949,–
–,–,"CCOc1ccc(F)c(Cl)c1C1CC1CN (single isomer, unassigned; (+)) [(+)-Example 51, (+)-(2-(2-Chloro-6-ethoxy-3-fluorophenyl)cyclopropyl)methanamine]",760,(56%) % 5-HT,761,(47%) % 5-HT,22,(15%) % 5-HT,–,–,–,–,–
–,–,"NCC1CC1c1cc(Cl)c(Cl)cc1OCCF (single isomer, unassigned; (+)) [(+)-Example 34, (+)-(2-(4,5-Dichloro-2-(2-fluoroethoxy)phenyl)cyclopropyl)methanamine]",15400,(40%) % 5-HT,–,–,18,(87%) % 5-HT,–,–,–,92,–
–,–,"CCOc1ccc(F)c(F)c1C1CC1CN (single isomer, unassigned; (+)) [(+)-Example 46, (+)-(2-(6-Ethoxy-2,3-difluorophenyl)cyclopropyl)methanamine]",288,(48%) % 5-HT,1160,(57%) % 5-HT,7.2,(107%) % 5-HT,–,–,–,–,–
–,–,"CCOc1ccc(F)c(F)c1C1CC1CN (single isomer, unassigned; (-)) [(−)-Example 46, (−)-(2-(6-Ethoxy-2,3-difluorophenyl)cyclopropyl)methanamine]",4270,(30%) % 5-HT,2150,(18%) % 5-HT,83,(99%) % 5-HT,–,–,–,–,–
–,–,"CCCOc1cc(F)c(F)cc1C1CC1CN (single isomer, unassigned; (+)) [(+)-Example 43, (+)-(2-(4,5-Difluoro-2-propoxyphenyl)cyclopropyl)methanamine]",2540,(24%) % 5-HT,–,(23%) % 5-HT,26,(93%) % 5-HT,–,–,–,–,805
–,–,"COc1ccc(F)c(F)c1C1CC1CN (single isomer, unassigned; (-)) [(−)-Example 45, (−)-(2-(2,3-Difluoro-6-methoxyphenyl)cyclopropyl)methanamine]",–,(62%) % 5-HT,–,(72%) % 5-HT,–,(108%) % 5-HT,462,461,16,–,–
–,–,"COc1cc(F)c(Cl)cc1[C@@H]1C[C@H]1CN (single isomer, unassigned) [(+)-Example 1, (+)-(2-(5-Chloro-4-fluoro-2-methoxyphenyl)cyclopropyl)methanamine]",25,(59%) % 5-HT,81,(93%) % 5-HT,7.6,(97%) % 5-HT,–,–,–,–,–
–,–,"COc1ccc(Cl)c(Cl)c1C1CC1CN (single isomer, unassigned; (-)) [(−)-Example 36, (−)-(2-(2,3-Dichloro-6-methoxyphenyl)cyclopropyl)methanamine]",–,(62%) % 5-HT,–,(88%) % 5-HT,–,(104%) % 5-HT,51,38,0.95,–,–
–,–,"CC(C)Oc1ccc(Cl)cc1C1CC1CN (single isomer, unassigned; (+)) [(+)-Example 14, (+)-(2-(5-Chloro-2-isopropoxyphenyl)cyclopropyl)methanamine]",997,(37%) % 5-HT,4000,(19%) % 5-HT,91,(86%) % 5-HT,–,–,–,–,–
